For the experiment, the target named is T1, human μ (mu, MOP) receptor (Homo sapiens, UniProt P35372).
T1 construct: expressed in transfected cells; host or cells: CHO cells
Nature of the experiment: cAMP assay in CHO cells expressing human mu receptor, agonist assay. The experiment is classed as cell-based. In general terms: cAMP levels reflect the balance of adenylyl cyclase and phosphodiesterase activity.

Counter-ions that a name gives are not always drawn.

T1 sequence (P35372 whole entry): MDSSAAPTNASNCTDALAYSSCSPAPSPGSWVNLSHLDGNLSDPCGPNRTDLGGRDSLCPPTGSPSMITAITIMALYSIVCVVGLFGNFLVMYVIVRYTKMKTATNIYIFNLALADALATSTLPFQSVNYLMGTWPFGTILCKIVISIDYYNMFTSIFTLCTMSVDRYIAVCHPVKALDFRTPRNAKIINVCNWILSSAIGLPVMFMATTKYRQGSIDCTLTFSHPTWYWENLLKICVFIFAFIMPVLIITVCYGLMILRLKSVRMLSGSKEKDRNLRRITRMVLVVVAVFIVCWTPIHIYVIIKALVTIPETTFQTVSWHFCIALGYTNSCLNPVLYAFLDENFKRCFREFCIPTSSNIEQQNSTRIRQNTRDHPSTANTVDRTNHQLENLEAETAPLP

As to `C[N@@+]1(CC2CC2)CC[C@]23c4c5ccc(O)c4OC2C(=O)CCC3(O)C1C5` (stereo partly drawn) [S-MNTX, (S)-N-(cyclopropylmethyl)-noroxymorphone methyl salt], the EC50 (CHO cells, human recombinant mu receptor, 10 uM forskolin, 100 uM IBMX, read-out: EC50 (agonist response, inhibition of forskolin-induced cAMP)) came out at 600 nM. Further, the “nature of the agonist response” value (cAMP agonist assay) was “complete (not partial)”. The “cAMP agonist assay value (Table IX.1)” value (log{M} conc −4.0) is 3; the “cAMP agonist assay value (Table IX.1)” value (log{M} conc −4.5) is on record as −3; the “cAMP agonist assay value (Table IX.1)” value (log{M} conc −5.0) was determined as 4; the “cAMP agonist assay value (Table IX.1)” value (log{M} conc −5.5) was 11; the “cAMP agonist assay value (Table IX.1)” value (log{M} conc −6.0) is reported as 32; the “cAMP agonist assay value (Table IX.1)” value (log{M} conc −6.5) was determined as 66. The “cAMP agonist assay value (Table IX.1)” value was found to be 70 (log{M} conc −7.0), 79 (log{M} conc −7.5), 104 (log{M} conc −8.0) and 86 (log{M} conc −9.0).

A word on the EC50: it is the concentration needed to bring the measured effect to its halfway point.

The record behind these values is patent publication US7563899B2, “(S)-N-methylnaltrexone” (Progenics Pharmaceuticals, Inc., priority 2005, dated 2009).
